In US10420758B2, “Indolinyl-sulfonamide inhibitors of tankyrase and methods of use thereof” (The Board of Regents of the University of Texas System, priority 2015, dated 2019):

What was measured:
Assay in all cases: PARP profiling, parsylation of immobilized histone
Format in all cases: biochemical
PARP3 = molecular target: T1, PARP3 (Homo sapiens, UniProt Q9Y6F1)
T1 sequence (Q9Y6F1 1-533): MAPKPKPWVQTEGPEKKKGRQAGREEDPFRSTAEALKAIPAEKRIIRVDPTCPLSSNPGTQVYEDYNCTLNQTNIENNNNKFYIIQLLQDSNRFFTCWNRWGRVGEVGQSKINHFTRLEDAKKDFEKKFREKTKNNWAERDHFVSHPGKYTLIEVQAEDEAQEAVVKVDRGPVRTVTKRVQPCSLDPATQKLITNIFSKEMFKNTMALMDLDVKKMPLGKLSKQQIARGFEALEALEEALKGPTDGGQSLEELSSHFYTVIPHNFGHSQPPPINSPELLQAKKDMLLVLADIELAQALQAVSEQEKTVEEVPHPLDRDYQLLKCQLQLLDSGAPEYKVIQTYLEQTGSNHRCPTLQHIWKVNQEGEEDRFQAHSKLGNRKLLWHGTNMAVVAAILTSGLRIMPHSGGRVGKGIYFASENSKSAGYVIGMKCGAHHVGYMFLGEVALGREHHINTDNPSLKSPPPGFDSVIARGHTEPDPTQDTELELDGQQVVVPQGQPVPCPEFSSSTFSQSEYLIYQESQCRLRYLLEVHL
Experimental: (§1) Performed by BPS Bioscience Inc., San Diego by following the BPS PARP or TNKS assay kit protocols. The enzymatic reactions were conducted in duplicate at room temperature for 1 hr in a 96 well plate coated with histone substrate. […] of reaction buffer (Tris.HCl, pH 8.0) contains NAD^+, biotinylated NAD^+, activated DNA, recombinant PARP enzyme and 10 μM of the test compound. […] After enzymatic reactions, 50 μL of Streptavidin-horseradish peroxidase was added to each well and the plate was incubated at room temperature for an additional 30 min. 100 μL of developer reagents were added to wells and luminescence was measured using a BioTek Synergy™ 2 microplate reader.

PARP12 = molecular target: T2, PARP12 (Homo sapiens, UniProt Q9H0J9)
T2 sequence (Q9H0J9 1-701): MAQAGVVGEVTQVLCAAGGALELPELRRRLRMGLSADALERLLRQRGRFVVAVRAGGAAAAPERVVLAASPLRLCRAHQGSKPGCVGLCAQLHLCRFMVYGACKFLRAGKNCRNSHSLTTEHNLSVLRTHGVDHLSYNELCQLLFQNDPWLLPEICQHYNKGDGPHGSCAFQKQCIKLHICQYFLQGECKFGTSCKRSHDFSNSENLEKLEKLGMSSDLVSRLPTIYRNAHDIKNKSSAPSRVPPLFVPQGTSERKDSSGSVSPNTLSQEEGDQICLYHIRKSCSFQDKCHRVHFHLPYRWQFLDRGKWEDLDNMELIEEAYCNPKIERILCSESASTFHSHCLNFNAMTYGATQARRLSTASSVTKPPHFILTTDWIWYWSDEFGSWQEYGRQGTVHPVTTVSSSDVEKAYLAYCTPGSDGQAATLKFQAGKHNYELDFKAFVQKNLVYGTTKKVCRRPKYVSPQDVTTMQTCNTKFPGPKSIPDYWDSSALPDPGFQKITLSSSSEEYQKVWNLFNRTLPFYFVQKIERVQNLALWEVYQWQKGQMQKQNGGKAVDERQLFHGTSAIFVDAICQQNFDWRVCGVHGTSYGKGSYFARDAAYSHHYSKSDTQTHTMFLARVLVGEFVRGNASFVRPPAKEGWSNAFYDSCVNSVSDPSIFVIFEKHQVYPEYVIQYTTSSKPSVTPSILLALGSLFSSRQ
Experimental: as §1

PARP10 = molecular target: T3, PARP10 (Homo sapiens, UniProt Q53GL7)
T3 sequence (Q53GL7 1-1025): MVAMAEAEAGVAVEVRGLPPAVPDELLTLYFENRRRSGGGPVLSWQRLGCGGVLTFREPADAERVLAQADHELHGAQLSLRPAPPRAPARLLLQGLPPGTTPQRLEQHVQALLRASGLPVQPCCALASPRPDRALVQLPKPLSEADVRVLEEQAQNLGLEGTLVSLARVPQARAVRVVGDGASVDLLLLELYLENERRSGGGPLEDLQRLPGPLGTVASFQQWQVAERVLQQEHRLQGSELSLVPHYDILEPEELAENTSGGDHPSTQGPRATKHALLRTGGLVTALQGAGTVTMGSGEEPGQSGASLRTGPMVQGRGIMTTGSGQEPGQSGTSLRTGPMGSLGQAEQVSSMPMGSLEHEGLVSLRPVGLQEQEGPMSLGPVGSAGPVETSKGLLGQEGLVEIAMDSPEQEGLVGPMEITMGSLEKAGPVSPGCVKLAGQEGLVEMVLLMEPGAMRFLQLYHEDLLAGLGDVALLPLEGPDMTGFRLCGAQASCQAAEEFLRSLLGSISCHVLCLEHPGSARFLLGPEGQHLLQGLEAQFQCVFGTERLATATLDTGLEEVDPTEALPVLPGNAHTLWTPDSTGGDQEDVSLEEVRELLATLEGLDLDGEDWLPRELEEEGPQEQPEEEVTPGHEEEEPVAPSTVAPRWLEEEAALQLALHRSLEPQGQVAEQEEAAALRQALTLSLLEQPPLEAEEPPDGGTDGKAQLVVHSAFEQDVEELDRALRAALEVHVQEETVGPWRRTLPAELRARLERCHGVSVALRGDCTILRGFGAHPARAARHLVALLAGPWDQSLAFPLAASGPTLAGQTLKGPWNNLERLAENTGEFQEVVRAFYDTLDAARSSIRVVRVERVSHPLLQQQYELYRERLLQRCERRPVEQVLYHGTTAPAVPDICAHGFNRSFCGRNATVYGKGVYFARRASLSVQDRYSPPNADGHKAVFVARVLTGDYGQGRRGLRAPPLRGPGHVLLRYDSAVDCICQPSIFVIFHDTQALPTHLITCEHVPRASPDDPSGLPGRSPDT
Experimental: as §1

`O=C(Nc1cccc2cccnc12)c1ccc(N2C(=O)[C@@H]3[C@H](C2=O)[C@@H]2C=C[C@H]3C2)cc1` [IWR-1] was tested, and the “% inhibition” value (PARP3; IWR compounds 10 μM) was 6%, the “% inhibition” value (PARP12; IWR compounds 10 μM) was 11% and the “% inhibition” value (PARP10; IWR compounds 10 μM) was 18%.
In the case of `CCN(C(=O)C1CCN(S(=O)(=O)c2cc3c(cc2Br)CCN3C(C)=O)CC1)c1cccc(C)c1` [IWR-8], the inhibition at 10 µM (PARP3) is reported as 11%, the inhibition at 10 µM (PARP12; IWR compounds 10 μM) is reported as 14% and the inhibition at 10 µM (PARP10; IWR compounds 10 μM) is reported as 9%.
With `O=C(c1cc(Cc2n[nH]c(=O)c3ccccc23)ccc1F)N1CCN(C(=O)C2CC2)CC1` [Olaparib] the inhibition at 0.02 µM (PARP3) was 100%, the inhibition at 0.02 µM (PARP12) was 84% and the inhibition at 0.02 µM (PARP10) was 99%.
